Test results reported in patent publication US20140212382A1, “PURINE MONOPHOSPHATE PRODRUGS FOR TREATMENT OF VIRAL INFECTIONS” (EMORY UNIVERSITY, priority 2011, published 2014).
Where two headings read alike, the source gives them in different places.

What was measured:
[1] = test system: MtDNA, HepG2 Hepatoma cells; experiment: Mitochondrial toxicity in HepG2 cells: mitochondrial DNA content; format: cell-based
Text: A real-time PCR assay to accurately quantify mitochondrial DNA content has been developed (see Stuyver L J, Lostia S, Adams M, Mathew J S, Pai B S, Grier J, Tharnish P M, Choi Y, Chong Y, Choo H, Chu C K, Otto M J, Schinazi R F. Antiviral activities and cellular toxicities of modified 2′,3′-dideoxy-2′,3′-didehydrocytidine analogs. Antimicrob. Agents Chemother. 2002; 46: 3854-60). This assay was used in all studies described in this application that determine the effect of nucleoside analogs on mitochondrial DNA content. In this assay, low-passage-number HepG2 cells were seeded at 5,000 cells/well in collagen-coated 96-well plates. Nucleoside monophosphate analogs were added to the medium to obtain final concentrations of 0 μM, 0.1 μM, 10 μM and 100 μM. On culture day 7, cellular nucleic acids were prepared by using commercially available columns (RNeasy 96 kit; Qiagen). […] The mitochondrial cytochrome c oxidase subunit II (COXII) gene and the β-actin or rRNA gene were amplified from 5 μl of the eluted nucleic acids using a multiplex Q-PCR protocol with suitable primers and probes for both target and reference amplifications. For COXII the following sense, probe and antisense primers are used, respectively: 5′-[…]-3′,5′-tetrachloro-6-carboxyfluorescein-[…]-TAMRA-3′ and 5′-[…]-3′. For exon 3 of the β-actin gene (GenBank accession number E01094) the sense, probe, and antisense primers are 5′-[…]-3′,5′-6-[…]-3′ and 5′-[…]-3′, respectively. The primers and probes for the rRNA gene are commercially available from Applied Biosystems. Since equal amplification efficiencies were obtained for all genes, the comparative CT method was used to investigate potential inhibition of mitochondrial DNA synthesis. The comparative CT method uses arithmetic formulas in which the amount of target (COXII gene) is normalized to the amount of an endogenous reference (the β-actin or rRNA gene) and is relative to a calibrator (a control with no drug at day 7). The arithmetic formula for this approach is given by 2-ΔΔCT, where ΔΔCT is (CT for average target test sample−CT for target control)−(CT for average reference test−CT for reference control) (see Johnson M R, K Wang, J B Smith, M J Heslin, R B Diasio. Quantitation of dihydropyrimidine dehydrogenase expression by real-time reverse transcription polymerase chain reaction. Anal. Biochem. 2000; 278:175-184). A decrease in mitochondrial DNA content in cells grown in the presence of drug would indicate mitochondrial toxicity.
(§1) The effect of compounds 8b-up, 12, and 8a on nuclear or mitochondrial DNA, or lactic acid production, in HepG2 Hepatoma cells was analyzed over a 14 day period. The procedure outlined in section (i) above was used for this analysis.

[2] = test system: Huh7 cells; experiment: Cellular pharmacology in Huh7 cells (LC/MS of nucleotides formed); format: in vitro ADME; details: 50 μM, 4 hr
Procedure: Similar to the method outlined for HepG2 cellular pharmacology, compounds are incubated in Huh-7 cells for 4 hr at the concentration of 50 μM in triplicate. […] Ice-cold 70% methanol can be used as the extraction solvent. ddATP (10 nM) can be used as the internal standard.

[3] = test system: HCV Replicon RNA in Huh 7 Clone B cells; experiment: HCV replicon assay; format: cell-based; details: Hepatitis C virus
Procedure: (§2) Huh 7 Clone B cells containing HCV Replicon RNA were seeded in a 96-well plate at 5000 cells/well, and the compounds tested at 10 μM in triplicate immediately after seeding. Following five days incubation (37° C., 5% CO2), total cellular RNA was isolated using the versaGene RNA purification kit from Gentra. Replicon RNA and an internal control (TaqMan rRNA control reagents, Applied Biosystems) were amplified in a single step multiplex Real Time RT-PCR Assay. The antiviral effectiveness of the compounds was calculated by subtracting the threshold RT-PCR cycle of the test compound from the threshold RT-PCR cycle of the no-drug control (ΔCt HCV). A ΔCt of 3.3 equals a 1-log reduction (equal to 90% less starting material) in Replicon RNA levels. The cytotoxicity of the compounds was also calculated using the ΔCt rRNA values. (2′-C-Me-C) was used as the control. To determine EC90 and IC50 values^2, ΔCt: values were first converted into a fraction of the starting material,^3 and then were used to calculate the % inhibition. The data on three compounds (Compound 12, Compound 8a, and compound 8b-up) is shown below in Table 3.

[4] = Cytotoxicity in HCV replicon assay (ΔCt rRNA); format: cell-based; details: human, HCV Replicon (Huh7)
Procedure: as §2

[5] = test system: PBM cells; experiment: Cellular pharmacology in PBM cells (LC-MS/MS of intracellular metabolites); format: in vitro ADME; details: 50 μM, 4 h, 37° C.
Procedure: Test compounds are incubated in PBM cells at 50 μM for 4 h at 37° C. Then the drug containing media is removed and the PBM cells are washed twice with PBS to remove extracellular drugs. The intracellular drugs are extracted from 10×10^6 PBM cells using 1 mL 70% ice-cold methanol (containing 10 nM of the internal standard ddATP). Following precipitation, the samples are maintained at room temperature for 15 min followed by vortexing for 30 sec, and then stored 12 h at −20° C. The supernatant is then evaporated to dryness. Dry samples would be stored at −20° C. until LC-MS/MS analysis. Prior to analysis, each sample is reconstituted in 100 μL mobile phase A, and centrifuged at 20,000 g to remove insoluble particulates.
Gradient separation is performed on a Hypersil GOLD column (100×1.0 mm, 3 μm particle size; Thermo Scientific, Waltham, Mass., USA). Mobile phase A consists of 2 mM ammonium phosphate and 3 mM hexylamine. Acetonitrile is increased from 10 to 80% in 15 min, and kept at 80% for 3 min. Equilibration at 10% acetonitrile lasts 15 min. The total run time is 33 min. The flow rate is maintained at 50 μL/min and a 10 μL injection is used. The autosampler and the column compartment are typically maintained at 4.5 and 30° C., respectively.
The first 3.5 min of the analysis is diverted to waste. The mass spectrometer is operated in positive ionization mode with a spray voltage of 3.2 kV.

[6] = test system: nuclear DNA, HepG2 Hepatoma cells; experiment: Mitochondrial toxicity in HepG2 cells: nuclear DNA content; format: cell-based
Procedure: This assay was used in all studies described in this application that determine the effect of nucleoside analogs on mitochondrial DNA content. In this assay, low-passage-number HepG2 cells were seeded at 5,000 cells/well in collagen-coated 96-well plates. […] On culture day 7, cellular nucleic acids were prepared by using commercially available columns (RNeasy 96 kit; Qiagen). […] The mitochondrial cytochrome c oxidase subunit II (COXII) gene and the β-actin or rRNA gene were amplified from 5 μl of the eluted nucleic acids using a multiplex Q-PCR protocol with suitable primers and probes for both target and reference amplifications. […] For exon 3 of the β-actin gene (GenBank accession number E01094) the sense, probe, and antisense primers are 5′-[…]-3′,5′-6-[…]-3′ and 5′-[…]-3′, respectively. The primers and probes for the rRNA gene are commercially available from Applied Biosystems. […] The comparative CT method uses arithmetic formulas in which the amount of target (COXII gene) is normalized to the amount of an endogenous reference (the β-actin or rRNA gene) and is relative to a calibrator (a control with no drug at day 7). The arithmetic formula for this approach is given by 2-ΔΔCT, where ΔΔCT is (CT for average target test sample−CT for target control)−(CT for average reference test−CT for reference control) (see Johnson M R, K Wang, J B Smith, M J Heslin, R B Diasio. Quantitation of dihydropyrimidine dehydrogenase expression by real-time reverse transcription polymerase chain reaction. Anal. Biochem. 2000; 278:175-184). A decrease in mitochondrial DNA content in cells grown in the presence of drug would indicate mitochondrial toxicity.
as §1

[7] = 1 μM, HepG2 Hepatoma cells, 14 day assay
[8] = 10 μM, HepG2 Hepatoma cells, 14 day assay
[9] = 50 μM, HepG2 Hepatoma cells, 14 day assay
[10] = Huh-7, 120 h, HCV Replicon (Huh7), five days incubation, read-out: EC50
[11] = Huh 7 Clone B cells containing HCV replicon RNA

CCOC(=O)[C@H](C)NP(=O)(OCC1O[C@@H](n2cnc3c(N)nc(N)nc32)C(C)(O)C1O)Oc1ccccc1 (stereo in doubt) [Compound 8a, (2S)-ethyl 2-((((2S,3R,4R,5R)-5-(2,6-diamino-9H-purin-9-yl)-3,4-dihydroxy-4-methyltetrahydrofuran-2-yl)methoxy)(phenoxy)phosphorylamino)propanoate]
effect on nuclear or mitochondrial DNA or lactic acid production ([1]; up to 50 μM, HepG2 Hepatoma cells, 14 day assay, summary also covers nuclear DNA and lactic acid): no significant effect | intracellular guanine analog triphosphate [2]: also detected | intracellular level of 2,6-diamino-2′-C-Me purine triphosphate [2]: unexpectedly high levels

CCOC(=O)CCc1ccccc1O[P@](=O)(N[C@@H](C)C(=O)OCC)OC[C@H]1O[C@@H](n2cnc3c(N)nc(N)nc32)C(C)(O)C1O (stereo partly drawn)
EC50 ([3]; Huh-7, 120 h): 2.3 µM | EC90 ([3]; Huh-7, 120 h): 7.7 µM | CC50 at 5 day [4]: > 3 µM

CCOC(=O)CCc1ccccc1O[P@@](=O)(N[C@@H](C)C(=O)OCC)OC[C@H]1O[C@@H](n2cnc3c(N)nc(N)nc32)C(C)(O)C1O (stereo partly drawn)
EC50 ([3]; Huh-7, 120 h): 0.2 µM | EC90 ([3]; Huh-7, 120 h): 0.7 µM | CC50 at 5 day [4]: > 10 µM

Nc1nc(N)c2ncn([C@H]3CO[C@@H](CO)O3)c2n1 [DAPD]
intracellular level of DAPD [5]: Low levels | intracellular level of DAPD-TP / phosphorylated forms of DAPD [5]: no phosphorylated forms of DAPD were detected | intracellular level of DXG-TP [5]: high levels

CCOC(=O)[C@H](C)NP(=O)(OC[C@H]1O[C@@H](n2cnc3c(N)nc(N)nc32)C(C)(O)C1O)Oc1ccccc1 (stereo partly drawn) [drawing 51]
% Inhibition nuclear DNA [6, 7]: 4.0% | % Inhibition nuclear DNA [6, 8]: 20% | % Inhibition nuclear DNA [6, 9]: < 1% | % Inhibition MtDNA [1, 7]: < 1% | % Inhibition MtDNA [1, 8]: 5.4% | % Inhibition MtDNA [1, 9]: < 1%

CCOC(=O)CCc1ccccc1OP(=O)(N[C@H](C)C(=O)OCC)OC[C@H]1O[C@@H](n2cnc3c(N)nc(N)nc32)C(C)(O)C1O (stereo partly drawn) [drawing 49]
% Inhibition nuclear DNA [6, 7]: 30% | % Inhibition nuclear DNA [6, 8]: 16% | % Inhibition nuclear DNA [6, 9]: 10% | % Inhibition MtDNA [1, 7]: 24% | % Inhibition MtDNA [1, 8]: 34% | % Inhibition MtDNA [1, 9]: 43%

CCOC(=O)[C@H](C)NP(=O)(OC[C@H]1O[C@@H](n2cnc3c(N)nc(N)nc32)C(C)(O)C1O)Oc1ccccc1 (stereo partly drawn) [drawing 56]
EC50 ([3]; Huh-7, 120 h): 1.3 µM | EC90 ([3]; Huh-7, 120 h): 4.9 µM | CC50 at 5 day [4]: > 10 µM

CCOC(=O)CCc1ccccc1OP(=O)(N[C@@H](C)C(=O)OCC)OC[C@H]1O[C@@H](n2cnc3c(N)nc(N)nc32)C(C)(F)C1O (stereo partly drawn)
EC50 ([3]; Huh-7, 120 h): 0.7 µM | EC90 ([3]; Huh-7, 120 h): 2.9 µM | CC50 at 5 day [4]: > 10 µM

CC(C)OC(=O)CCNC(=O)[C@@H]1OP(=O)(OC[C@H]2O[C@@H](n3cnc4c(N)nc(N)nc43)C(C)(O)C2O)OCC1(C)C (stereo partly drawn)
EC50 [3, 10]: > 10 µM | EC50 ([3]; Huh-7, HCV Replicon (Huh7), second line printed as EC50 in the entry, read-out: EC50): > 10 µM | CC50 at 5 day [4, 11]: > 10 µM

CCOC(=O)[C@H](C)NP(=O)(OC[C@@H]1OC[C@H](n2cnc3c(N)nc(N)nc32)O1)Oc1ccccc1 (stereo partly drawn) [RS-864]
intracellular level of DAPD [5]: low levels | intracellular level of DAPD-TP / phosphorylated forms of DAPD [5]: very high levels | intracellular level of DXG-TP [5]: low levels | ratio of DXG-TP (6-OH) to DAPD-TP (6-NH2) ([5]; LC/MS/MS): 2 to 98

CC1(O)C(O)[C@@H](CO)O[C@H]1n1cnc2c(N)nc(N)nc21 (stereo partly drawn) [drawing 55]
EC50 [3, 10]: 3.7 µM | EC90 ([3]; Huh-7, 120 h, HCV Replicon (Huh7), five days incubation, read-out: EC90): 11 µM | CC50 at 5 day [4, 11]: > 10 µM

CC1(O)C(O)[C@@H](CO)O[C@H]1n1cnc2c(N)nc(N)nc21 (stereo partly drawn) [drawing 50]
% Inhibition nuclear DNA ([6]; human, 14 day, 1 μM): 22% | % Inhibition nuclear DNA ([6]; human, 14 day, 10 μM): 46% | % Inhibition nuclear DNA ([6]; human, 14 day, 50 μM): 21% | % Inhibition MtDNA ([1]; human, 14 day, 1 μM): < 1% | % Inhibition MtDNA ([1]; human, 14 day, 10 μM): < 1% | % Inhibition MtDNA ([1]; human, 14 day, 50 μM): < 1%

CC1(O)C(O)[C@@H](CO)O[C@H]1n1cnc2c(N)nc(N)nc21 (stereo partly drawn) [Compound 12, 2,6-diamino-2′-C-Me purine nucleoside]
intracellular guanine analog triphosphate [2]: major triphosphate detected | intracellular level of 2,6-diamino-2′-C-Me purine triphosphate [2]: extremely low levels
